Assay results: the OligoGym collection
Oligonucleotides are given in HELM: sugar(base)linkage, 5' to 3'; d 2'-deoxyribose, r ribose, m 2'-O-methylribose, p phosphate. ss, as = sense and antisense strand

Target: UBE2K
Assay: reporter assay of Huesken 2005
Conditions: siRNA
Further: test concentration or dose not given here.

Substance	normalised inhibition (eCFP-eYFP dual reporter)
RNA1{r(C)p.r(A)p.r(G)p.r(G)p.r(A)p.r(U)p.r(G)p.r(C)p.r(U)p.r(G)p.r(U)p.r(A)p.r(G)p.r(U)p.r(A)p.r(G)p.r(C)p.r(A)p.r(A)p.d(T)p.d(T)}|RNA2{r(U)p.r(U)p.r(G)p.r(C)p.r(U)p.r(A)p.r(C)p.r(U)p.r(A)p.r(C)p.r(A)p.r(G)p.r(C)p.r(A)p.r(U)p.r(C)p.r(C)p.r(U)p.r(G)p.d(T)p.d(G)}$$$RNA1{StrandType:ss}|RNA2{StrandType:as}$	93%
RNA1{r(C)p.r(A)p.r(G)p.r(U)p.r(A)p.r(C)p.r(A)p.r(A)p.r(A)p.r(C)p.r(A)p.r(A)p.r(A)p.r(A)p.r(U)p.r(C)p.r(C)p.r(C)p.r(G)p.d(T)p.d(T)}|RNA2{r(C)p.r(G)p.r(G)p.r(G)p.r(A)p.r(U)p.r(U)p.r(U)p.r(U)p.r(G)p.r(U)p.r(U)p.r(U)p.r(G)p.r(U)p.r(A)p.r(C)p.r(U)p.r(G)p.d(A)p.d(T)}$$$RNA1{StrandType:ss}|RNA2{StrandType:as}$	70.1%
RNA1{r(C)p.r(C)p.r(A)p.r(G)p.r(A)p.r(A)p.r(A)p.r(C)p.r(A)p.r(U)p.r(A)p.r(C)p.r(C)p.r(C)p.r(A)p.r(U)p.r(U)p.r(U)p.r(A)p.d(T)p.d(T)}|RNA2{r(U)p.r(A)p.r(A)p.r(A)p.r(U)p.r(G)p.r(G)p.r(G)p.r(U)p.r(A)p.r(U)p.r(G)p.r(U)p.r(U)p.r(U)p.r(C)p.r(U)p.r(G)p.r(G)p.d(T)p.d(A)}$$$RNA1{StrandType:ss}|RNA2{StrandType:as}$	72.4%
RNA1{r(C)p.r(C)p.r(A)p.r(G)p.r(A)p.r(U)p.r(G)p.r(A)p.r(U)p.r(C)p.r(C)p.r(A)p.r(C)p.r(A)p.r(G)p.r(G)p.r(A)p.r(U)p.r(G)p.d(T)p.d(T)}|RNA2{r(C)p.r(A)p.r(U)p.r(C)p.r(C)p.r(U)p.r(G)p.r(U)p.r(G)p.r(G)p.r(A)p.r(U)p.r(C)p.r(A)p.r(U)p.r(C)p.r(U)p.r(G)p.r(G)p.d(C)p.d(T)}$$$RNA1{StrandType:ss}|RNA2{StrandType:as}$	66.7%
RNA1{r(C)p.r(C)p.r(C)p.r(G)p.r(A)p.r(A)p.r(A)p.r(U)p.r(G)p.r(U)p.r(U)p.r(C)p.r(A)p.r(A)p.r(A)p.r(C)p.r(A)p.r(G)p.r(A)p.d(T)p.d(T)}|RNA2{r(U)p.r(C)p.r(U)p.r(G)p.r(U)p.r(U)p.r(U)p.r(G)p.r(A)p.r(A)p.r(C)p.r(A)p.r(U)p.r(U)p.r(U)p.r(C)p.r(G)p.r(G)p.r(G)p.d(A)p.d(T)}$$$RNA1{StrandType:ss}|RNA2{StrandType:as}$	92.7%
RNA1{r(C)p.r(C)p.r(G)p.r(C)p.r(A)p.r(C)p.r(G)p.r(G)p.r(U)p.r(A)p.r(U)p.r(U)p.r(A)p.r(U)p.r(U)p.r(G)p.r(U)p.r(C)p.r(A)p.d(T)p.d(T)}|RNA2{r(U)p.r(G)p.r(A)p.r(C)p.r(A)p.r(A)p.r(U)p.r(A)p.r(A)p.r(U)p.r(A)p.r(C)p.r(C)p.r(G)p.r(U)p.r(G)p.r(C)p.r(G)p.r(G)p.d(A)p.d(G)}$$$RNA1{StrandType:ss}|RNA2{StrandType:as}$	63.3%
RNA1{r(C)p.r(C)p.r(G)p.r(G)p.r(U)p.r(U)p.r(U)p.r(A)p.r(U)p.r(C)p.r(A)p.r(C)p.r(U)p.r(A)p.r(A)p.r(A)p.r(A)p.r(U)p.r(A)p.d(T)p.d(T)}|RNA2{r(U)p.r(A)p.r(U)p.r(U)p.r(U)p.r(U)p.r(A)p.r(G)p.r(U)p.r(G)p.r(A)p.r(U)p.r(A)p.r(A)p.r(A)p.r(C)p.r(C)p.r(G)p.r(G)p.d(A)p.d(C)}$$$RNA1{StrandType:ss}|RNA2{StrandType:as}$	89.7%
RNA1{r(C)p.r(C)p.r(U)p.r(A)p.r(A)p.r(U)p.r(A)p.r(U)p.r(U)p.r(A)p.r(G)p.r(U)p.r(U)p.r(C)p.r(C)p.r(G)p.r(U)p.r(C)p.r(A)p.d(T)p.d(T)}|RNA2{r(U)p.r(G)p.r(A)p.r(C)p.r(G)p.r(G)p.r(A)p.r(A)p.r(C)p.r(U)p.r(A)p.r(A)p.r(U)p.r(A)p.r(U)p.r(U)p.r(A)p.r(G)p.r(G)p.d(A)p.d(T)}$$$RNA1{StrandType:ss}|RNA2{StrandType:as}$	74.9%
RNA1{r(C)p.r(C)p.r(U)p.r(C)p.r(C)p.r(A)p.r(G)p.r(A)p.r(C)p.r(A)p.r(C)p.r(A)p.r(C)p.r(C)p.r(A)p.r(U)p.r(A)p.r(U)p.r(G)p.d(T)p.d(T)}|RNA2{r(C)p.r(A)p.r(U)p.r(A)p.r(U)p.r(G)p.r(G)p.r(U)p.r(G)p.r(U)p.r(G)p.r(U)p.r(C)p.r(U)p.r(G)p.r(G)p.r(A)p.r(G)p.r(G)p.d(T)p.d(C)}$$$RNA1{StrandType:ss}|RNA2{StrandType:as}$	66.9%
RNA1{r(C)p.r(U)p.r(G)p.r(A)p.r(A)p.r(A)p.r(G)p.r(A)p.r(U)p.r(C)p.r(A)p.r(A)p.r(U)p.r(G)p.r(G)p.r(G)p.r(C)p.r(A)p.r(G)p.d(T)p.d(T)}|RNA2{r(C)p.r(U)p.r(G)p.r(C)p.r(C)p.r(C)p.r(A)p.r(U)p.r(U)p.r(G)p.r(A)p.r(U)p.r(C)p.r(U)p.r(U)p.r(U)p.r(C)p.r(A)p.r(G)p.d(G)p.d(A)}$$$RNA1{StrandType:ss}|RNA2{StrandType:as}$	79.2%
RNA1{r(C)p.r(U)p.r(U)p.r(G)p.r(U)p.r(A)p.r(G)p.r(A)p.r(U)p.r(G)p.r(A)p.r(G)p.r(A)p.r(A)p.r(U)p.r(U)p.r(U)p.r(U)p.r(A)p.d(T)p.d(T)}|RNA2{r(U)p.r(A)p.r(A)p.r(A)p.r(A)p.r(U)p.r(U)p.r(C)p.r(U)p.r(C)p.r(A)p.r(U)p.r(C)p.r(U)p.r(A)p.r(C)p.r(A)p.r(A)p.r(G)p.d(A)p.d(T)}$$$RNA1{StrandType:ss}|RNA2{StrandType:as}$	91.3%
RNA1{r(G)p.r(A)p.r(A)p.r(A)p.r(U)p.r(G)p.r(U)p.r(U)p.r(C)p.r(A)p.r(A)p.r(A)p.r(C)p.r(A)p.r(G)p.r(A)p.r(C)p.r(A)p.r(G)p.d(T)p.d(T)}|RNA2{r(C)p.r(U)p.r(G)p.r(U)p.r(C)p.r(U)p.r(G)p.r(U)p.r(U)p.r(U)p.r(G)p.r(A)p.r(A)p.r(C)p.r(A)p.r(U)p.r(U)p.r(U)p.r(C)p.d(G)p.d(G)}$$$RNA1{StrandType:ss}|RNA2{StrandType:as}$	76.6%
RNA1{r(G)p.r(A)p.r(A)p.r(U)p.r(U)p.r(A)p.r(A)p.r(G)p.r(A)p.r(G)p.r(G)p.r(A)p.r(G)p.r(A)p.r(A)p.r(A)p.r(U)p.r(A)p.r(G)p.d(T)p.d(T)}|RNA2{r(C)p.r(U)p.r(A)p.r(U)p.r(U)p.r(U)p.r(C)p.r(U)p.r(C)p.r(C)p.r(U)p.r(C)p.r(U)p.r(U)p.r(A)p.r(A)p.r(U)p.r(U)p.r(C)p.d(T)p.d(G)}$$$RNA1{StrandType:ss}|RNA2{StrandType:as}$	74.2%
RNA1{r(G)p.r(A)p.r(C)p.r(A)p.r(C)p.r(A)p.r(C)p.r(C)p.r(A)p.r(U)p.r(A)p.r(U)p.r(G)p.r(A)p.r(A)p.r(G)p.r(G)p.r(A)p.r(G)p.d(T)p.d(T)}|RNA2{r(C)p.r(U)p.r(C)p.r(C)p.r(U)p.r(U)p.r(C)p.r(A)p.r(U)p.r(A)p.r(U)p.r(G)p.r(G)p.r(U)p.r(G)p.r(U)p.r(G)p.r(U)p.r(C)p.d(T)p.d(G)}$$$RNA1{StrandType:ss}|RNA2{StrandType:as}$	64.2%
RNA1{r(G)p.r(A)p.r(G)p.r(G)p.r(A)p.r(A)p.r(G)p.r(A)p.r(U)p.r(A)p.r(C)p.r(C)p.r(A)p.r(A)p.r(C)p.r(U)p.r(A)p.r(G)p.r(A)p.d(T)p.d(T)}|RNA2{r(U)p.r(C)p.r(U)p.r(A)p.r(G)p.r(U)p.r(U)p.r(G)p.r(G)p.r(U)p.r(A)p.r(U)p.r(C)p.r(U)p.r(U)p.r(C)p.r(C)p.r(U)p.r(C)p.d(C)p.d(T)}$$$RNA1{StrandType:ss}|RNA2{StrandType:as}$	79.3%
RNA1{r(G)p.r(A)p.r(G)p.r(G)p.r(A)p.r(G)p.r(A)p.r(A)p.r(A)p.r(U)p.r(A)p.r(G)p.r(C)p.r(A)p.r(G)p.r(G)p.r(A)p.r(C)p.r(C)p.d(T)p.d(T)}|RNA2{r(G)p.r(G)p.r(U)p.r(C)p.r(C)p.r(U)p.r(G)p.r(C)p.r(U)p.r(A)p.r(U)p.r(U)p.r(U)p.r(C)p.r(U)p.r(C)p.r(C)p.r(U)p.r(C)p.d(T)p.d(T)}$$$RNA1{StrandType:ss}|RNA2{StrandType:as}$	54.8%
RNA1{r(G)p.r(A)p.r(U)p.r(C)p.r(C)p.r(A)p.r(C)p.r(A)p.r(G)p.r(G)p.r(A)p.r(U)p.r(G)p.r(C)p.r(U)p.r(G)p.r(U)p.r(A)p.r(G)p.d(T)p.d(T)}|RNA2{r(C)p.r(U)p.r(A)p.r(C)p.r(A)p.r(G)p.r(C)p.r(A)p.r(U)p.r(C)p.r(C)p.r(U)p.r(G)p.r(U)p.r(G)p.r(G)p.r(A)p.r(U)p.r(C)p.d(A)p.d(T)}$$$RNA1{StrandType:ss}|RNA2{StrandType:as}$	67.6%
RNA1{r(G)p.r(A)p.r(U)p.r(G)p.r(C)p.r(U)p.r(G)p.r(U)p.r(A)p.r(G)p.r(U)p.r(A)p.r(G)p.r(C)p.r(A)p.r(A)p.r(A)p.r(U)p.r(C)p.d(T)p.d(T)}|RNA2{r(G)p.r(A)p.r(U)p.r(U)p.r(U)p.r(G)p.r(C)p.r(U)p.r(A)p.r(C)p.r(U)p.r(A)p.r(C)p.r(A)p.r(G)p.r(C)p.r(A)p.r(U)p.r(C)p.d(C)p.d(T)}$$$RNA1{StrandType:ss}|RNA2{StrandType:as}$	65.5%
RNA1{r(G)p.r(C)p.r(A)p.r(G)p.r(C)p.r(U)p.r(G)p.r(C)p.r(A)p.r(A)p.r(U)p.r(G)p.r(A)p.r(C)p.r(U)p.r(C)p.r(U)p.r(C)p.r(C)p.d(T)p.d(T)}|RNA2{r(G)p.r(G)p.r(A)p.r(G)p.r(A)p.r(G)p.r(U)p.r(C)p.r(A)p.r(U)p.r(U)p.r(G)p.r(C)p.r(A)p.r(G)p.r(C)p.r(U)p.r(G)p.r(C)p.d(C)p.d(C)}$$$RNA1{StrandType:ss}|RNA2{StrandType:as}$	47.4%
RNA1{r(G)p.r(C)p.r(C)p.r(A)p.r(G)p.r(A)p.r(U)p.r(G)p.r(A)p.r(U)p.r(C)p.r(C)p.r(A)p.r(C)p.r(A)p.r(G)p.r(G)p.r(A)p.r(U)p.d(T)p.d(T)}|RNA2{r(A)p.r(U)p.r(C)p.r(C)p.r(U)p.r(G)p.r(U)p.r(G)p.r(G)p.r(A)p.r(U)p.r(C)p.r(A)p.r(U)p.r(C)p.r(U)p.r(G)p.r(G)p.r(C)p.d(T)p.d(C)}$$$RNA1{StrandType:ss}|RNA2{StrandType:as}$	74.9%
